Article PMC4594035, “Xenopus borealis as an alternative source of oocytes for biophysical and pharmacological studies of neuronal ion channels” (Scientific Reports, 2015)
Like-named read-outs stand apart in the source and are kept apart here. Bridge positions count the residues as written; N and C are the ends. Ends that are not written are not given here.

Columns and labels:
[1] = biological target: α1β2γ2L GABAAR (Homo sapiens, UniProt P14867+P47870); experiment: GABA activation of α1β2γ2L GABAAR, two-electrode voltage-clamp in Xenopus oocytes; format: cell-based; conditions: n = 9–10; for Slope (Hill coefficient): mean
Sequence of α1β2γ2L GABAAR (P14867 28-456): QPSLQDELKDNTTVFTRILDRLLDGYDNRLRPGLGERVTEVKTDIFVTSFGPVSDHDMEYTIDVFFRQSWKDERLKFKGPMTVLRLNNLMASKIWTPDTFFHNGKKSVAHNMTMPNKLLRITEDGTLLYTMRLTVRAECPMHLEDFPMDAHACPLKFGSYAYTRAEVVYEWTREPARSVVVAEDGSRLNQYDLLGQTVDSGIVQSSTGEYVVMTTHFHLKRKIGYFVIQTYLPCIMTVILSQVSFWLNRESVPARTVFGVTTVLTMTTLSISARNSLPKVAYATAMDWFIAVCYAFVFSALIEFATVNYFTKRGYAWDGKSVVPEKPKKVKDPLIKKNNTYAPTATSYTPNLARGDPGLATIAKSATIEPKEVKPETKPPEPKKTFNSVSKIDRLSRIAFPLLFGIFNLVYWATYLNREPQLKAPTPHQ
Sequence of α1β2γ2L GABAAR (P47870 26-512): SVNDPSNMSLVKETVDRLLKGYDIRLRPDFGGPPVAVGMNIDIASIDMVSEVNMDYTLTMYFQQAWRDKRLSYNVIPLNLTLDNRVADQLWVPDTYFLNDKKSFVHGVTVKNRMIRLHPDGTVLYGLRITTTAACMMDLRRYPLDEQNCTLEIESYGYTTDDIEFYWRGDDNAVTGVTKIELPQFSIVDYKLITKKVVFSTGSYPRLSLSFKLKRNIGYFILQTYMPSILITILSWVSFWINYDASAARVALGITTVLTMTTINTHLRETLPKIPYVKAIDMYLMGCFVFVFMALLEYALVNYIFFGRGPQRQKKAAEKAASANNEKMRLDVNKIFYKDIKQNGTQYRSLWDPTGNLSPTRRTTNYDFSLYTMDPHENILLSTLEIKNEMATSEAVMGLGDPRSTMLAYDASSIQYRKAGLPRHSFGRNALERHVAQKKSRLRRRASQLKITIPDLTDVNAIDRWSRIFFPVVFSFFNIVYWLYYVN
Sequence of α1β2γ2L GABAAR (P18507 40-475 partner): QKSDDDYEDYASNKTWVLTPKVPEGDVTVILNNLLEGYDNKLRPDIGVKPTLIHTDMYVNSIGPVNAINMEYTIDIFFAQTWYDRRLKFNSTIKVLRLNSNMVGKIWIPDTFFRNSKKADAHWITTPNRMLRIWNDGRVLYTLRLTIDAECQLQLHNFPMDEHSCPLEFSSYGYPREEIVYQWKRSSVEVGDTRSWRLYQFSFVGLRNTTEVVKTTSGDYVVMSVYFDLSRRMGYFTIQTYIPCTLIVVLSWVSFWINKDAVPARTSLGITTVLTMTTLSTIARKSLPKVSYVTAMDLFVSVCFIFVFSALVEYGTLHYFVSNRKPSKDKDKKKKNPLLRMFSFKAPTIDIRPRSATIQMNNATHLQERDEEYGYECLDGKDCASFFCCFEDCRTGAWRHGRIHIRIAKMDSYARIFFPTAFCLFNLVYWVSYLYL
Protocol: (§1) X. laevis (Xenopus Express) and X. borealis (Nasco) oocytes were surgically removed from anaesthetised (Tricaine methanesulfonate, MS-222) female frogs and treated with collagenase (1 mg/ml; Sigma type I) for defolliculation. cRNAs were synthesised using an mMessage mMachine cRNA transcription kit (Ambion Inc., Austin, TX, USA) and injected into stage V–VI oocytes at 4–200 ng per cell. Oocytes were stored at 17 °C in ND96 solution (96 mM NaCl, 1.8 mM CaCl2, 2 mM KCl, 2 mM MgCl2, 5 mM HEPES, pH 7.4) supplemented with 2.5 mM pyruvic acid, 50 μg/mL gentamicin, and either 2.5% horse serum or 0.5 mM theophylline. Membrane currents were recorded 2–10 days after injection under voltage-clamp (Axoclamp 900A or Geneclamp 500B, Molecular Devices, CA, USA) using two standard glass microelectrodes of 0.5–2 MΩ resistance when filled with 3 M KCl solution. Data acquisition and analysis were performed using pCLAMP software (Version 9.2 or 10, Molecular Devices, Sunnyvale, CA, USA). All experiments were performed at room temperature (18–21 °C) in ND96 solution. Experiments containing peptides were performed in ND96 solution containing 0.1% fatty acid free-bovine serum albumin (Sigma). Recordings were performed as previously described for ASICs[30][31], GABAAR[32][33], GlyR[34], KV[6][8][35], and NaV[36] channels.
(§2) All data were analysed using Prism 6.0 (GraphPad Software, San Diego, CA, USA). The Hill equation was fitted to normalised concentration-response curves to obtain the half-maximal response (EC50, IC50, or pH50) and Hill coefficient (nH). Voltage-dependent activation curves were fit with the Boltzmann equation to obtain the V0.5 (the voltage corresponding to half-maximal effect). Data are shown as mean and 95% confidence intervals, and n represents the number of oocytes for a given experiment (taken from at least three different frogs). […] For both t-tests, it was assumed data was sampled from Gaussian populations, and P values were calculated from two-tailed tests. […]

[2] = biological target: α5β3γ2L GABAAR (Homo sapiens, UniProt P28472+P31644); experiment: GABA activation of α5β3γ2L GABAAR, two-electrode voltage-clamp in Xenopus oocytes; format: cell-based; conditions: n = 9–10; for Slope (Hill coefficient): mean
Sequence of α5β3γ2L GABAAR (P31644 32-462): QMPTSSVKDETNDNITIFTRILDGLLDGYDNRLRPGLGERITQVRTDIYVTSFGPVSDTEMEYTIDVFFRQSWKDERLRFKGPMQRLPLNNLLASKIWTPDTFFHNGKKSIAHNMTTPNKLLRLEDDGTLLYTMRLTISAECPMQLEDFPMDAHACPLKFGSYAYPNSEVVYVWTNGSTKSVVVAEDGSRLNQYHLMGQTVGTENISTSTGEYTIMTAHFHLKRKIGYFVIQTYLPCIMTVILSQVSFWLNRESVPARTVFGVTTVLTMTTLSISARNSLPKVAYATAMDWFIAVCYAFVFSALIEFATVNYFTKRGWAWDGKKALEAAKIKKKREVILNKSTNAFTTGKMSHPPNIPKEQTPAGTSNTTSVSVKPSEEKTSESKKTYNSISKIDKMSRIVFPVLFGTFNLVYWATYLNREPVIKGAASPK
Sequence of α5β3γ2L GABAAR (P28472 26-473): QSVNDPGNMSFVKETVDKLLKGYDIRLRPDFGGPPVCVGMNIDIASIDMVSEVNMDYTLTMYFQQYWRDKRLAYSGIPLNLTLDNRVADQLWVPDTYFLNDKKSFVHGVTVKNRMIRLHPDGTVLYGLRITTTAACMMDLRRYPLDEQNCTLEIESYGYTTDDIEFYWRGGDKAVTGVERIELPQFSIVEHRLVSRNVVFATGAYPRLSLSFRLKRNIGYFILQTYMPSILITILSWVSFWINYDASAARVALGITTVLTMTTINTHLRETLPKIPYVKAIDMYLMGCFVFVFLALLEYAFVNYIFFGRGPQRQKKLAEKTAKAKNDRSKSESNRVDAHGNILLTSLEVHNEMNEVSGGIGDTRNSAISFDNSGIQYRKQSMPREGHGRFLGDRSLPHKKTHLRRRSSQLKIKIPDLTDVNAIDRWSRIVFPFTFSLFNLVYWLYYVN
Sequence of α5β3γ2L GABAAR (P18507 40-475 partner): as the sequence (P18507 40-475 partner) above
Protocol: as §1, §2

[3] = biological target: α5β2γ2L GABAAR (Homo sapiens, UniProt P31644+P47870); experiment: GABA activation of α5β2γ2L GABAAR, two-electrode voltage-clamp in Xenopus oocytes; format: cell-based; conditions: n = 9–10; for Slope (Hill coefficient): mean
Sequence of α5β2γ2L GABAAR (P31644 32-462): as the sequence (P31644 32-462) above
Sequence of α5β2γ2L GABAAR (P47870 26-512): as the sequence (P47870 26-512) above
Sequence of α5β2γ2L GABAAR (P18507 40-475 partner): as the sequence (P18507 40-475 partner) above
Protocol: as §1, §2

[4] = tested on: α1R271C GlyR; conditions: MTSR labelled, mean ± s.e.m.; for Slope, ΔF / Slope, ΔI / EC50: n = 4–6; for EC50: −40 mV
Excerpt: (§3) This technique permits the real time monitoring of conformational changes in ion channel domains distant from the gate. It involves introducing a cysteine into the ion channel domain of interest and covalently labelling it with a sulfhydryl-reactive rhodamine derivative such as MTSR. As the quantum efficiency of the rhodamine depends on the hydrophobicity of its environment, protein conformational changes occurring in the immediate vicinity of the attached fluorophore are likely to change the hydrophobicity of its environment and thus produce a fluorescence change. […] Conformational changes at the channel gate are monitored simultaneously using two-electrode voltage-clamp. For these recordings, DNA encoding the α1 GlyR subunit was subcloned into pGEMHE, a plasmid vector optimised for oocyte expression. […] Both sites have previously been characterised extensively using voltage-clamp fluorometry. A C41A mutation was incorporated into the α1 GlyR to eliminate the sole non-crosslinked extracellular sulfhydryl group. Site directed mutagenesis was performed using the QuikChange mutagenesis kit (Stratagene).
(§4) On the day of recording, oocytes were transferred into ND96 and stored on ice. For a subset of experiments, a modified version of the previously described approach[39] for vitelline membrane disruption and removal was performed by incubating oocytes in ND96 containing 0.5 mg/ml protease (protease type VIII from Bacillus licheniformis, Sigma-Aldrich) for 1–1.5 min before labelling. Following this, a sequential wash step was performed by transferring oocytes into fresh ND96 solution five consecutive times. To label with either MTSR or MTS-TAMRA (Toronto Research Chemicals), oocytes were transferred into labelling solution containing 10 μM of either compound in ND96 for 25 s. The oocytes were then washed and stored in ND96 for up to 6 h before recording. All labelling steps were performed on ice.
(§5) We recently described the experimental set up in detail. Briefly, we employed an inverted microscope (Eclipse TE300, Nikon Instruments) equipped with a high-Q tetramethylrhodamine isothiocyanate filter set (Chroma Technology), a Plan Fluor X40 objective (Nikon Instruments) and an H7360-03 photomultiplier detection system (Hamamatsu Photonics) attached to the side port of the microscope. An excitation filter wheel including a shutter and emission filter wheel were controlled through a Lambda 10-2 unit (Sutter Instruments). A Lambda LS 175 W xenon arc lamp served as a light source and was coupled to the microscope via a liquid light guide (Sutter Instruments). The design of the custom-made recording chamber has been described. An automated perfusion system operated by a ValveBank-8 valve controller (AutoMate Scientific) was used for perfusion of the recording chamber. Electrodes were moved by automated ROE-200 micromanipulators coupled to an MPC-200 controller (Sutter Instruments). Cells were voltage-clamped at −40 mV and currents recorded using a Gene Clamp 500B amplifier (Molecular Devices). Current and fluorescence traces were acquired at 200 Hz via a Digidata 1322A interface and pCLAMP 9.2 software.
(§6) All data were analysed using Prism 6.0 (GraphPad Software, San Diego, CA, USA). The Hill equation was fitted to normalised concentration-response curves to obtain the half-maximal response (EC50, IC50, or pH50) and Hill coefficient (nH). Voltage-dependent activation curves were fit with the Boltzmann equation to obtain the V0.5 (the voltage corresponding to half-maximal effect). Data are shown as mean and 95% confidence intervals, and n represents the number of oocytes for a given experiment (taken from at least three different frogs). Most equivalence testing comparing X. laevis and X. borealis oocytes was performed using an unpaired Student’s t-test with 95% confidence intervals.

[5] = tested on: α1N203C GlyR; conditions: for ΔFmax (maximal fluorescence change) / ΔImax (maximal current change) / Slope, ΔF / Slope, ΔI / EC50: MTS-TAMRA labelled, mean ± s.e.m.; for Slope, ΔF / Slope, ΔI / EC50: n = 4–6; for EC50: −40 mV
Excerpt: as §3, §4, §5, §6

[6] = biological target: T1, rat ASIC3 (Rattus norvegicus, UniProt O35240); experiment: Inhibition of rat ASIC3 by APETx2, two-electrode voltage-clamp in Xenopus oocytes; format: cell-based; conditions: ND96 with 0.1% fatty acid free-bovine serum albumin, 18–21 °C, mean, n = 9, Supplementary Table S3, read-out: IC50 (half-maximal response)
T1 construct: expressed in transfected cells; host or cells: Xenopus laevis and Xenopus borealis oocytes (cRNA injection)
T1 sequence (O35240 1-533): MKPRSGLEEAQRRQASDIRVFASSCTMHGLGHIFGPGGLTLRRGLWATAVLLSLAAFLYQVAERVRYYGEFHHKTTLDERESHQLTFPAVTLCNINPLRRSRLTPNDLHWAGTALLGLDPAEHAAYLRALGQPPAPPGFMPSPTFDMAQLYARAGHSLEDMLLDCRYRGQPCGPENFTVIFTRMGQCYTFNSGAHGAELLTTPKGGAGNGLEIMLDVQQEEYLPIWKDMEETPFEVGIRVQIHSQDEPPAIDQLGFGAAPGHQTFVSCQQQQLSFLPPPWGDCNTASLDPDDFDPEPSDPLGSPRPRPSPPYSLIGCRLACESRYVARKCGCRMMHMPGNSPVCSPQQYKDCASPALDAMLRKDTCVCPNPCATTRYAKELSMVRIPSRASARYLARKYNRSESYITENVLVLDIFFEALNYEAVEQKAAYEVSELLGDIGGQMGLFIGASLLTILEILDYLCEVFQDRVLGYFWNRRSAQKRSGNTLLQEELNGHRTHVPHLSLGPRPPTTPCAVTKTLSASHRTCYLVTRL
Protocol: as §1, with “Recordings were performed as previously described for ASICs[30][31], GABAAR[32][33], GlyR[34], KV[6][8][35], and NaV[36] channels.” left out
(§7) All data were analysed using Prism 6.0 (GraphPad Software, San Diego, CA, USA). […] For both t-tests, it was assumed data was sampled from Gaussian populations, and P values were calculated from two-tailed tests. […]

[7] = tested on: NaV1.7; experiment: Inhibition of NaV1.7 by ProTx-I, two-electrode voltage-clamp in Xenopus oocytes; format: cell-based; conditions: 300 nM ProTx-I; depolarisation to –15 mV from holding potential −80 mV; n = 8–9; Fig. 3f; P > 0.05
Protocol: as §1, with “Recordings were performed as previously described for ASICs[30][31], GABAAR[32][33], GlyR[34], KV[6][8][35], and NaV[36] channels.” left out
as §7

[8] = tested on: NaV1.5; experiment: Inhibition of NaV1.5 by ProTx-I, two-electrode voltage-clamp in Xenopus oocytes; format: cell-based; conditions: 300 nM ProTx-I; depolarisation to –15 mV from holding potential −80 mV; n = 8–9; Fig. 3f; P > 0.05
Protocol: as §1, with “Recordings were performed as previously described for ASICs[30][31], GABAAR[32][33], GlyR[34], KV[6][8][35], and NaV[36] channels.” left out
as §7

[9] = tested on: NaV channel; conditions: cited from earlier work
Protocol: Two-electrode voltage-clamp electrophysiology recordings were performed to compare the properties of a panel of KV and voltage-gated sodium (NaV) channels heterologously expressed in X. laevis and X. borealis oocytes. […] Conductance-voltage relationship curves obtained for NaV1.2 (Fig. 3c), NaV1.5 (Fig. 3d), and NaV1.7 (Fig. 3e) overlap ...

[10] = tested on: NaV1.2; experiment: Inhibition of NaV1.2 by ProTx-I, two-electrode voltage-clamp in Xenopus oocytes; format: cell-based; conditions: 300 nM ProTx-I; depolarisation to –15 mV from holding potential −80 mV; n = 8–9; Fig. 3f; P > 0.05
Protocol: as §1, with “Recordings were performed as previously described for ASICs[30][31], GABAAR[32][33], GlyR[34], KV[6][8][35], and NaV[36] channels.” left out
as §7

[11] = X. laevis compared with X. borealis oocytes
[12] = read-out: EC50, ΔF (glycine-induced fluorescence change), X. laevis oocytes
[13] = read-out: EC50, ΔI (glycine-induced current), X. borealis oocytes
[14] = read-out: EC50, ΔI (glycine-induced current), X. laevis oocytes

## NCCCC(=O)O [GABA, γ-aminobutyric acid]
[1]; X. borealis oocytes
  Slope (Hill coefficient): 0.60
[1]; [11]
  Concentration-effect curves for GABA activation, X. laevis vs X. borealis: no difference in the concentration-effect curves
[1]; X. laevis oocytes
  Slope (Hill coefficient): 0.56
[2]; X. borealis oocytes
  Slope (Hill coefficient): 0.93
[2]; [11]
  Concentration-effect curves for GABA activation, X. laevis vs X. borealis: no difference in the concentration-effect curves
[2]; X. laevis oocytes
  Slope (Hill coefficient): 0.75
[3]; X. borealis oocytes
  Slope (Hill coefficient): 0.74
[3]; [11]
  Concentration-effect curves for GABA activation, X. laevis vs X. borealis: no difference in the concentration-effect curves
[3]; X. laevis oocytes
  Slope (Hill coefficient): 0.49

## NCC(=O)O [glycine]
[4]; X. borealis oocytes
  ΔFmax (maximal fluorescence change): 9.0 ± 2.2%
  ΔImax (maximal current change): 2.7 ± 0.5 µA
  Slope, ΔF: 1.0 ± 0.1
  Slope, ΔI: 2.0 ± 0.2
[4]; X. laevis oocytes
  ΔFmax (maximal fluorescence change): 12.2 ± 2.2%
  ΔImax (maximal current change): 3.4 ± 1.7 µA
  Slope, ΔF: 1.3 ± 0.2
  Slope, ΔI: 1.4 ± 0.2
[4]; read-out: EC50, ΔF (glycine-induced fluorescence change), X. borealis oocytes
  EC50: 1010 ± 98 µM
[4]; [12]
  EC50: 872 ± 58 µM
[4]; [13]
  EC50: 1700 ± 104 µM
[4]; [14]
  EC50: 1930 ± 175 µM
[5]; 10 μM glycine, protease (type VIII, 0.5 mg/ml) 1 min before labelling, n = 7, Fig. 5b
  ΔF after 1 min protease treatment vs untreated oocytes: A significant increase in ΔF was obtained after 1 min treatment with protease for X. borealis, but not X. laevis, oocytes
[5]; X. borealis oocytes
  ΔFmax (maximal fluorescence change): 27.8 ± 4.4%
  ΔImax (maximal current change): 8.0 ± 0.8 µA
  Slope, ΔF: 1.8 ± 0.1
  Slope, ΔI: 1.5 ± 0.1
[5]; X. laevis oocytes
  ΔFmax (maximal fluorescence change): 25.9 ± 4.2%
  ΔImax (maximal current change): 8.4 ± 0.2 µA
  Slope, ΔF: 1.4 ± 0.2
  Slope, ΔI: 1.9 ± 0.2
[5]; [12]
  EC50: 548 ± 25 µM
[5]; [13]
  EC50: 136 ± 8.7 µM
[5]; [14]
  EC50: 145 ± 10 µM

## GTACSCGNSKGIYWFYRPSCPTDRGYTGSCRYFLGTCCTPAD (disulfide 4-37, 6-30, 20-38) [APETx2]
[6]; X. borealis oocytes
  IC50: 0.0511 µM
[6]; X. laevis oocytes
  IC50: 0.0647 µM

## ProTx-I
[7]
  Inhibition by ProTx-I, X. laevis vs X. borealis: Comparable levels of inhibition between species
[8]
  Inhibition by ProTx-I, X. laevis vs X. borealis: Comparable levels of inhibition between species
[9]
  NaV channel inhibition: potent and non-selective NaV channel inhibitor
[10]
  Inhibition by ProTx-I, X. laevis vs X. borealis: Comparable levels of inhibition between species
